ChEMBL document CHEMBL1201862, “PubChem BioAssay data set” (2004)
“And” between values parts separate entries of the source, which are not always exact repeats. Identical values can stand only once.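 48-hour exposure; five concentrations; linearly interpolated endpoints. The concentration for 50% growth inhibition is given as GI50.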 The source made the active and inactive calls. No stated cut-off is given here; in the data, active = GI50 up to about 1.1 µM and inactive = higher.

What was measured:
Test in all cases: NCI anticancer screen, dose series, 48 h
M14 = test system: M14
KM12 = test system: KM12
K562 = test system: K562
NCI-H460 = test system: NCI-H460
BT-549 = test system: BT-549
HL-60 = test system: HL-60
TK-10 = test system: TK-10
HOP-62 = test system: HOP-62
HCT-15 = test system: HCT-15
ACHN = test system: ACHN
786-0 = test system: 786-0
SF-268 = test system: SF-268
IGROV-1 = test system: IGROV-1
SNB-19 = test system: SNB-19
SNB-75 = test system: SNB-75
SK-MEL-5 = test system: SK-MEL-5
UACC-257 = test system: UACC-257
MDA-MB-231 = test system: MDA-MB-231
A498 = test system: A498

SMILES | GI50 (M14) | GI50 (KM12) | GI50 (K562) | GI50 (NCI-H460) | GI50 (BT-549) | GI50 (HL-60) | GI50 (TK-10) | GI50 (HOP-62) | GI50 (HCT-15) | GI50 (ACHN) | GI50 (786-0) | GI50 (SF-268) | GI50 (IGROV-1) | GI50 (SNB-19) | GI50 (SNB-75) | GI50 (SK-MEL-5) | GI50 (UACC-257) | GI50 (MDA-MB-231) | GI50 (A498)
O=C1c2ccccc2C(=O)N1C(=S)c1ccccc1 | > 100 µM (inactive) | > 100 µM (inactive) | > 100 µM (inactive) | > 100 µM (inactive) | > 100 µM (inactive) | > 100 µM (inactive) | > 100 µM (inactive) | > 100 µM (inactive) | > 100 µM | > 100 µM (inactive) | > 100 µM (inactive) | > 100 µM (inactive) | > 100 µM (inactive) | > 100 µM (inactive) | > 100 µM (inactive) | > 100 µM (inactive) | > 100 µM (inactive) | > 100 µM (inactive) | 
CC1(C)CC2=NC(SSC3=C(C#N)C(c4ccc(Br)cc4)C4=C(O)CC(C)(C)CC4=N3)=C(C#N)C(c3ccc(Br)cc3)C2=C(O)C1 (centres undefined) | > 100 µM (inactive) | > 100 µM (inactive) | 75 µM (inactive) | > 100 µM (inactive) | > 100 µM (inactive) | 46.6 µM (inactive) | > 100 µM (inactive) | > 100 µM (inactive) | > 100 µM | > 100 µM (inactive) | > 100 µM (inactive) | > 100 µM (inactive) | > 100 µM (inactive) | > 100 µM (inactive) |  | > 100 µM (inactive) | > 100 µM (inactive) | > 100 µM (inactive) | > 100 µM (inactive)
O=C(O)CNC(=O)c1c2ccccc2nc2ccccc12 | > 100 µM (inactive) | > 100 µM (inactive) | > 100 µM (inactive) | > 100 µM (inactive) | 20.8 µM (inactive) |  | > 100 µM (inactive) | > 100 µM (inactive) | > 100 µM | > 100 µM (inactive) | > 100 µM (inactive) | > 100 µM (inactive) | > 100 µM (inactive) | > 100 µM (inactive) | > 100 µM (inactive) | > 100 µM (inactive) | > 100 µM (inactive) | > 100 µM (inactive) | > 100 µM (inactive)
COC1C(OC(C)=O)CC(=O)OC(C)C/C=C/C=C\C(O)C(C)CC(CC=O)C1OC1OC(C)C(OC2CC(C)(O)C(OC(=O)CC(C)C)C(C)O2)C(N(C)C)C1O (centres undefined) | 89.3 µM (inactive) and 57.5 µM (inactive) |  | 29.5 µM (inactive) and 51.2 µM (inactive) | > 100 µM (inactive) | > 100 µM (inactive) |  | > 100 µM (inactive) | > 100 µM (inactive) |  | > 100 µM (inactive) | > 100 µM (inactive) | 56 µM (inactive) | 32.4 µM (inactive) and 25.6 µM (inactive) | > 100 µM (inactive) and 77.6 µM (inactive) | > 100 µM (inactive) | 46.9 µM (inactive) and 39.3 µM (inactive) | 66.5 µM (inactive) and 70.1 µM (inactive) | > 100 µM (inactive) | > 100 µM (inactive) and 70.3 µM (inactive)
CC(=O)C1C(=O)C(=O)N(c2ccccc2)C1=O (centres undefined) | > 100 µM (inactive) | > 100 µM (inactive) |  | > 100 µM (inactive) | > 100 µM (inactive) | > 100 µM (inactive) | > 100 µM (inactive) | > 100 µM (inactive) | > 100 µM | > 100 µM (inactive) | > 100 µM (inactive) | > 100 µM (inactive) | > 100 µM (inactive) | > 100 µM (inactive) | > 100 µM (inactive) | > 100 µM (inactive) | > 100 µM (inactive) | > 100 µM (inactive) | 
Cc1ccc(C)n1-n1c(Cc2ccc(Cl)cc2)n[nH]c1=O | > 100 µM (inactive) | 46 µM (inactive) | 41.1 µM (inactive) | > 100 µM (inactive) | 71.1 µM (inactive) |  | > 100 µM (inactive) | > 100 µM (inactive) | > 100 µM | > 100 µM (inactive) | > 100 µM (inactive) | > 100 µM (inactive) | > 100 µM (inactive) | > 100 µM (inactive) | > 100 µM (inactive) | 51.8 µM (inactive) | 74.8 µM (inactive) | > 100 µM (inactive) | > 100 µM (inactive)
NCCNCC1CCNCC1 | > 100 µM (inactive) | > 100 µM (inactive) | > 100 µM (inactive) | > 100 µM (inactive) | > 100 µM (inactive) |  | > 100 µM (inactive) | > 100 µM (inactive) | > 100 µM | > 100 µM (inactive) | > 100 µM (inactive) | > 100 µM (inactive) | > 100 µM (inactive) | > 100 µM (inactive) | > 100 µM (inactive) | > 100 µM (inactive) | > 100 µM (inactive) | > 100 µM (inactive) | > 100 µM (inactive)
CCC1c2[nH]c3ccccc3c2C[C@H]2C(=O)NC(CCC(=O)OC(C)(C)C)C(=O)N12 (some centres undefined) | 42.5 µM (inactive) | 35.1 µM (inactive) | 53.6 µM (inactive) |  | 53.3 µM (inactive) | 34 µM (inactive) | 42.6 µM (inactive) | 78.5 µM (inactive) | 52 µM | 47.4 µM (inactive) | 56.6 µM (inactive) | 37.4 µM (inactive) | 53.8 µM (inactive) | 73.5 µM (inactive) |  | 39.4 µM (inactive) | 40.2 µM (inactive) | 66.4 µM (inactive) | 89.7 µM (inactive)
N#CCCN(CCC#N)c1ccc(/C=C2\N=C(c3ccccc3)N(c3ccc(Cl)cc3)C2=O)cc1 | > 100 µM (inactive) | 58.7 µM (inactive) | 48 µM (inactive) | > 100 µM (inactive) | > 100 µM (inactive) | > 100 µM (inactive) | > 100 µM (inactive) | > 100 µM (inactive) | > 100 µM | > 100 µM (inactive) | > 100 µM (inactive) | > 100 µM (inactive) | > 100 µM (inactive) | > 100 µM (inactive) |  | 76.7 µM (inactive) | > 100 µM (inactive) | > 100 µM (inactive) | > 100 µM (inactive)
CCOC(=O)CSc1nc2ccccc2c(=O)n1N | > 100 µM (inactive) | > 100 µM (inactive) | > 100 µM (inactive) | 83.4 µM (inactive) | > 100 µM (inactive) |  | 83.2 µM (inactive) |  | > 100 µM | > 100 µM (inactive) | > 100 µM (inactive) | > 100 µM (inactive) | > 100 µM (inactive) | > 100 µM (inactive) | > 100 µM (inactive) | > 100 µM (inactive) | > 100 µM (inactive) | > 100 µM (inactive) | > 100 µM (inactive)
O=C(c1ccncc1)C1C(=O)c2ccccc2C1C1(O)c2ccccc2CC1C(O)c1ccncc1 (centres undefined) | 25.8 µM (inactive) | 35.3 µM (inactive) | 42 µM (inactive) | 34.2 µM (inactive) | 45.9 µM (inactive) |  | 90.8 µM (inactive) | 35.6 µM (inactive) | 41.3 µM | 62.1 µM (inactive) | 39.9 µM (inactive) | 46.7 µM (inactive) | 40.5 µM (inactive) | 46.2 µM (inactive) | 50 µM (inactive) | 36 µM (inactive) | 52.7 µM (inactive) | 39.2 µM (inactive) | 49.1 µM (inactive)
COc1c2occc2c(OC)c2c(=O)c(S(=O)(=O)NC(=O)Nc3ccc(Cl)cc3)coc12 | > 10 µM (inactive) | > 10 µM (inactive) | > 10 µM (inactive) | > 10 µM (inactive) | > 10 µM (inactive) | > 10 µM (inactive) | > 10 µM (inactive) | > 10 µM (inactive) | > 10 µM | > 10 µM (inactive) | > 10 µM (inactive) | > 10 µM (inactive) | > 10 µM (inactive) | > 10 µM (inactive) |  | > 10 µM (inactive) | > 10 µM (inactive) | > 10 µM (inactive) | > 10 µM (inactive)
O=C1C(NS(=O)(=O)c2ccccc2)=C(n2cnc3ccccc32)C(=O)c2ccccc21 | > 100 µM (inactive) | > 100 µM (inactive) | > 100 µM (inactive) | > 100 µM (inactive) | 4.66 µM (inactive) | > 100 µM (inactive) | 89.3 µM (inactive) | 32.4 µM (inactive) | > 100 µM | > 100 µM (inactive) | 60.4 µM (inactive) | 86.3 µM (inactive) | 52.8 µM (inactive) | 38.4 µM (inactive) | 30.3 µM (inactive) | > 100 µM (inactive) | > 100 µM (inactive) | 48.9 µM (inactive) | 
CC[C@@H]1CSC(/C=C/C2OC3OC(C)(C)OC3C3OC(C)(C)OC23)=N1 (some centres undefined) | 10 µM (inactive) | 13.6 µM (inactive) | 3.91 µM (inactive) | 21.5 µM (inactive) | 3.58 µM (inactive) | 2.34 µM (inactive) | 3.78 µM (inactive) | 22.9 µM (inactive) | 3.75 µM | 9.44 µM (inactive) | 3.98 µM (inactive) | 6.03 µM (inactive) | 10.3 µM (inactive) | 20.4 µM (inactive) | 15 µM (inactive) | 6.67 µM (inactive) | 10.1 µM (inactive) | 12.4 µM (inactive) | 
Cc1cc2c(cc1N)C(C)C1(CCC(=O)N2Cc2ccccc2)OCCO1 (centres undefined) | > 100 µM (inactive) | > 100 µM (inactive) |  | > 100 µM (inactive) | > 100 µM (inactive) |  | > 100 µM (inactive) | > 100 µM (inactive) | > 100 µM | > 100 µM (inactive) | > 100 µM (inactive) | 83.4 µM (inactive) | > 100 µM (inactive) | > 100 µM (inactive) | 32.3 µM (inactive) | > 100 µM (inactive) | > 100 µM (inactive) | > 100 µM (inactive) | > 100 µM (inactive)
